Assay results taken from patent publication US12396966B2, “Pharmaceutical compositions and oral dosage forms of ketamine derivatives” (XWPHARMA LTD., priority 2021, dated 2025).

How the values were obtained:
[1] = humans; cited from earlier work
[2] = Two-stage dissolution of tablets (0.1N HCl 1 hour, then 50 mM acetate buffer pH 4.5); assay type: physicochemical; settings: FIG. 2
Method: The two-stage dissolution profiles were obtain as described in Example 5.
A two-stage dissolution apparatus was used to measure the dissolution profile of the tablets.
In the first stage, the tablets were immersed in 0.1N HCl a dissolution medium for 1 hour.
The dissolution medium was then immediately charged to a 50 mM acetate buffer at pH 4.5 immediately following 1 hour sampling via addition of 100 mM acetate buffer with appropriate pH and continued through 18 hours.
Two-stage dissolution profiles for the tablets were obtained using a USP 1 dissolution apparatus. The tablets were first added to 500 mL of a 0.1N hydrochloric acid solution and agitated at 100 RPM for 1 hour at 37° C. Samples (1 mL) were withdrawn at 0, 0.5 and 1 hours. The acid solution was then replaced with 1,000 mL of a 50 mM pH 4.5 acetate buffer solution and the tablets agitated at 100 RPM for up to 24 hours at 37° C. Samples (1 mL) were withdrawn at 1.5, 2, 3, 4, 6, 8, 12, 16, 20, and 24 hours. Solution samples were withdrawn at intervals and the concentration of Compound (39) was measured using high pressure liquid chromatography mass spectroscopy.

[3] = molecular target: CYP2D6 (Homo sapiens, UniProt P10635); assay: Preclinical studies: metabolism of compound (39) to release esketamine; assay type: in vitro ADME
Chain of CYP2D6 (P10635 whole entry, species assumed): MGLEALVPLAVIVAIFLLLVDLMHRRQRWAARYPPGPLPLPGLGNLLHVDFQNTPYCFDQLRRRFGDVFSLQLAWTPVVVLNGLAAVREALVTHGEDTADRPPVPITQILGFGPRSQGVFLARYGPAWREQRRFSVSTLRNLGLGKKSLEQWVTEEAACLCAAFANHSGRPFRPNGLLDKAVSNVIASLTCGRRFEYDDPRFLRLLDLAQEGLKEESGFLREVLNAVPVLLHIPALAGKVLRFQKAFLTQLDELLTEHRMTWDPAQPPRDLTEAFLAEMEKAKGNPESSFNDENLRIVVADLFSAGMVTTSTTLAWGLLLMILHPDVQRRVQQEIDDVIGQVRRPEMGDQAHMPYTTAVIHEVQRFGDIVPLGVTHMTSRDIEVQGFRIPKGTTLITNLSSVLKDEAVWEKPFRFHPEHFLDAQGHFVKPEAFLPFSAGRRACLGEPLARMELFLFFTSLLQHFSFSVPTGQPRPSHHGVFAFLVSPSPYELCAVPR

[4] = molecular target: CYP2C19 (Homo sapiens, UniProt P33261); assay: as above; assay type: in vitro ADME
Chain of CYP2C19 (P33261 whole entry, species assumed): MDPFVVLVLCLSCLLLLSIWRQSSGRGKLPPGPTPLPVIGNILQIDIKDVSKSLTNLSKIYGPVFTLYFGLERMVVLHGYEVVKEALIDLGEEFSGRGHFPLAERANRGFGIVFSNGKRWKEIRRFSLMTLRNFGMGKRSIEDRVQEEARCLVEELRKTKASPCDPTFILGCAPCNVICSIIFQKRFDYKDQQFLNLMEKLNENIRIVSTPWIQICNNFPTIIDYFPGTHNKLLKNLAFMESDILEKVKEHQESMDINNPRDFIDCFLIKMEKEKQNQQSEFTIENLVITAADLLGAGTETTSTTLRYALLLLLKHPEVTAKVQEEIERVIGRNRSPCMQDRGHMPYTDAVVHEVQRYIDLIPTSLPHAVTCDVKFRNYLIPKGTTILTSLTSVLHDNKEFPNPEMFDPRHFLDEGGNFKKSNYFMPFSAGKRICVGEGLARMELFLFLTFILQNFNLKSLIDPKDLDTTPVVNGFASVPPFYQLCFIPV

[5] = molecular target: CYP3A4 (Homo sapiens, UniProt P08684); assay: as above; assay type: in vitro ADME
Chain of CYP3A4 (P08684 whole entry, species assumed): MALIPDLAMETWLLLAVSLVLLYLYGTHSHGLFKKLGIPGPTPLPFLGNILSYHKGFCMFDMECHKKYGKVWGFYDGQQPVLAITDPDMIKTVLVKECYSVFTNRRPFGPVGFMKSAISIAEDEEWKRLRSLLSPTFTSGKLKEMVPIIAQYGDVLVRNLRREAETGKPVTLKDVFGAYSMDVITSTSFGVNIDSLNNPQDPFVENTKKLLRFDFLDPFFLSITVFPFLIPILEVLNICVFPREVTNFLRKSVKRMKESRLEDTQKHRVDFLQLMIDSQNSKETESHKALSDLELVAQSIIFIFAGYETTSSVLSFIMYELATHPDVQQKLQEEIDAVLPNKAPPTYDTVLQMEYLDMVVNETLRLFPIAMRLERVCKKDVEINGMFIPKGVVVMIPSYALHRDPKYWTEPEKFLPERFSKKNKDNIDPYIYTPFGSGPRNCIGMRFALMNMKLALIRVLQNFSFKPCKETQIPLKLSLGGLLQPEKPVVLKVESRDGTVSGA

[6] = Preclinical pharmacokinetic studies; assay type: in vivo; settings: mice
[7] = Preclinical pharmacokinetic studies; assay type: in vivo; settings: rats
[8] = Preclinical pharmacokinetic studies; assay type: in vivo; settings: dogs
[9] = Preclinical pharmacokinetic studies; assay type: in vivo; settings: monkeys
[10] = Preclinical pharmacokinetic studies: dose proportionality and repeated dosing; assay type: in vivo

Row | Compound | oral bioavailability (% F) [1] | effect of sodium lauryl sulfate on solubility of compound (39) ([2]; acid stage (0.1N HCl), tablets with and without sodium lauryl sulfate) | dissolution rate ([2]; pH 4.5, tablets with and without sodium lauryl sulfate) | metabolism by CYP2D6 to release esketamine [3] | metabolism by CYP2C19 to release esketamine [4] | metabolism by CYP3A4 to release esketamine [5] | absorption and conversion to esketamine [6] | absorption and conversion to esketamine [7] | absorption and conversion to esketamine [8] | absorption and conversion to esketamine [9] | accumulation of compound (39) and its metabolites ([10]; following repeated dosing) | systemic exposure, expressed as AUC: dose proportionality ([10]; for compound (39), esketamine, and noresketamine)
1 | CNC1(c2ccccc2Cl)CCCCC1=O (stereo not drawn) [Ketamine, 2-(2-chlorophenyl)-2-(methylamino)cyclohexan-one] | about 20% |  |  |  |  |  |  |  |  |  |  | 
2 | CC(C)[C@@H](C(=O)OCOC(=O)N(C)[C@]1(c2ccccc2Cl)CCCCC1=O)N(C)C [compound (39), ((((S)-1-(2-chlorophenyl)-2-oxocyclohexyl)(methyl)carbamoyl)oxy)methyl dimethyl-L-valinate] |  | reduces the solubility | approximately independent of the amount of sodium lauryl sulfate | metabolized | metabolized | metabolized | rapid absorption and conversion to esketamine | rapid absorption and conversion to esketamine | rapid absorption and conversion to esketamine | rapid absorption and conversion to esketamine | not observed | less than to greater than dose proportional
